pIC50: −log10 of the molar value. A value given as a limit tells only on which side of the number the result lay.

For one experiment, the target named is KRAS G12C-BRAF complex (Homo sapiens (Human), UniProt P01116+P62937, G12C). The experiment can be described thus: KRAS-BRAF with CYPA (500 nM) interaction assay (TR-FRET), G12C. In kind it is biochemical. The method, then: (§1) In this example, TR-FRET was also used to measure the compound or compound-CYPA dependent disruption of the KRAS G12C-BRAF complex. This protocol was also used to measure disruption of KRAS G12D or KRAS G12V binding to BRAF by a compound of the invention, respectively. In assay buffer containing 25 mM HEPES PH=7.4 (4-(2-hydroxyethyl)-1-piperazineethanesulfonic acid, Thermo, 15630080), 0.002% Tween20, 0.1% BSA, 100 mM NaCl, 5 mM MgCl2, 10 μM GMPPNP (Guanosine 5′-[β,γ-imido]triphosphate trisodium salt hydrate, Sigma, G0635), […] 384-well assay plate at final concentrations of 50 nM, 6.25 nM and 1 nM, respectively. Compound was present in plate wells as a 16-point 3-fold dilution series starting at a final concentration of 10 μM and incubated for 3 hours. A mixture of MAb Anti-6His-XL665 (Cisbio, 61HISXLB) and Mab anti-GST-TB cryptate (Cisbio, 61GSTTLB) was then added at a final concentration of 6.67 nM and 0.21 nM, respectively, and the plate was incubated for an additional 1.5 hours. TR-FRET signal was read on a PHERstar FSX microplate reader (Ex320 nm, Em 665/615 nm). Compounds that facilitate disruption of the KRAS-BRAF complex were identified as those eliciting a decrease in the TR-FRET ratio relative to DMSO control wells.

Experiment [1] concerns the target KRAS G12V binding to BRAF (Homo sapiens (Human), UniProt P01116+P62937, G12V). The experiment can be described thus: KRAS-BRAF with CYPA (500 nM) interaction assay (TR-FRET), G12V. In kind it is biochemical. The method, then:
In this example, TR-FRET was also used to measure the compound or compound-CYPA dependent disruption of the KRAS G12C-BRAF complex. This protocol was also used to measure disruption of KRAS G12D or KRAS G12V binding to BRAF by a compound of the invention, respectively. In assay buffer containing 25 mM HEPES PH=7.4 (4-(2-hydroxyethyl)-1-piperazineethanesulfonic acid, Thermo, 15630080), 0.002% Tween20, 0.1% BSA, 100 mM NaCl, 5 mM MgCl2, 10 μM GMPPNP (Guanosine 5′-[β,γ-imido]triphosphate trisodium salt hydrate, Sigma, G0635), […], GMPPNP loaded 6His-KRAS proteins, and […], 6.25 nM and 1 nM, respectively. Compound was present in plate wells as a 16-point 3-fold dilution series starting at a final concentration of 10 μM and incubated for 3 hours. A mixture of MAb Anti-6His-XL665 (Cisbio, 61HISXLB) and Mab anti-GST-TB cryptate (Cisbio, 61GSTTLB) was then added at a final concentration of 6.67 nM and 0.21 nM, respectively, and the plate was incubated for an additional 1.5 hours. TR-FRET signal was read on a PHERstar FSX microplate reader (Ex320 nm, Em 665/615 nm). Compounds that facilitate disruption of the KRAS-BRAF complex were identified as those eliciting a decrease in the TR-FRET ratio relative to DMSO control wells.

Experiment [2] concerns the target KRAS G12D binding to BRAF (Homo sapiens (Human), UniProt P01116+P62937, G12D). The experiment can be described thus: KRAS-BRAF with CYPA (500 nM) interaction assay (TR-FRET), G12D. In kind it is biochemical. The method, then: as §1
Experiment [3] relates to AGS (ATCC-CRL-1739) cells. The experiment can be described thus: Cell viability assay, G12D (AGS). In kind it is cell-based, human. The settings on record: Homo sapiens, KRAS cell viability, 72 hrs, Cell Counting Kit-8. The method, then: (§2) The purpose of this cellular assay was to determine the effects of test compounds on the proliferation of human cancer cell lines NCI-H358 (ATCC-CRL5807) cells, AGS (ATCC-CRL-1739) cells, SW620 (ATCC-CCL-227) over a 3-day treatment period by quantifying the amount of NADPH present at endpoint using Cell Counting Kit-8.
(§3) Cells were seeded at 5,000 cells/well (NCI-H358), 2,000 cells/well (AGS) 2,000 cells/well (SW620) in 96-well assay plates (Corning-3699) and incubated overnight. On the day of the assay, diluted compounds were then added in a final concentration of 0.5% DMSO. After 72 hrs incubation, a tenth of the volume of cell counting kit 8 (Dnjindo-CK04) was added into each well. Read the signal (OD450 minus OD650) using EnVision after 2 hrs incubation. IC50 was determined by fitting a 4-parameter sigmoidal concentration response model.

The test system of experiment [4] is phosphorylation of ERK, KRAS G12V in SW620. The experiment can be described thus: pERK inhibition assay, KRAS G12V. The format is cell-based, human. To be noted: Homo sapiens, SW-620, SW620, 4 hours. The method, then: (§4) This assay is to measure the ability of test compounds in inhibiting the phosphorylation of ERK, the downstream signaling of KRAS G12C in NCJ-H358 cells, KRAS G12D in AGS cells, and KRAS G12V in SW620. NCJ-H358 (ATCC-CRL5807) cells, AGS (ATCC-CRL-1739) cells, SW620 (ATCC-CCL-227) cells were all grown and maintained using RPMI-1640 medium (Thermo Fisher Scientific) with 10% fetal bovine serum and 1% penicillin/streptomycin. On the day prior to compound addition, cells were plated in tissue culture-treated 96 well plates (Corning-3699) at a density of 30,000 cell/well, 20,000 cell/well, 30,000 cell/well for NCJ-H358, AGS and SW620 respectively, and allowed for attachment overnight. Diluted compounds were then added in a final concentration of 0.5% DMSO. After 4 hours of incubation, the medium was removed, 100 μL of 4% formaldehyde was added, and the assay plates were incubated at room temperature for 20 minutes. The plates were then washed once with phosphate buffered saline (PBS), and permeabilized with 100 μL of chilled methanol for 10 minutes. Non-specific antibody binding to the plates was blocked using 50 μL 1×BSA blocking buffer (Thermo-37520, 10-fold dilution by Phosphate-Buffered Saline Tween (PBST) for at least 1 hour at room temperature.
(§5) The amount of phosphor-ERK was determined using an antibody specific for phosphorylated form of ERK. Primary antibody (pERK, CST-4370, Cell Signaling Technology) was diluted 1:300 in blocking buffer, with 50 μL aliquoted to each well, and incubated overnight at 4′° C. Cells was washed five times for 5 minutes with PBST. Secondary antibody ([…] anti-rabbit IgG, CST-7074, Cell Signaling Technology) was diluted 1:1000 in blocking buffer, and 50 μL was added to each well and incubated 1-2 hrs at room temperature. Cells was washed 5 times for 5 minutes with PBST, 100 μL TMB ELISA substrate (abcam-ab171523) were added and gently shake for 20 minutes. 50 μL stop solution (abcam-ab171529) were added, and then read the signal (OD450) by EnVision.
(§6) IC50 was determined by fitting a 4-parameter sigmoidal concentration response model.

Experiment [5] has as its system NCI-H358 (ATCC-CRL5807) cells. The experiment can be described thus: Cell viability assay, G12C (NCI-H358). The settings on record: Homo sapiens; KRAS cell viability, NCI-H358, 72 hrs, Cell Counting Kit-8. The format is cell-based, human. The method, then: as §2, §3
The next experiment deals with SW620 (ATCC-CCL-227). The experiment is described as follows: Cell viability assay, G12V (SW620). The format is cell-based, human. The settings on record: Homo sapiens, SW-620; KRAS cell viability, SW620, 72 hrs, Cell Counting Kit-8. The method, then:
as §2, §3

For experiment [6], the system named is phosphorylation of ERK, KRAS G12C in NCJ-H358 cells. The experiment is described as follows: pERK inhibition assay, KRAS G12C. The format is cell-based, human. The settings on record: Homo sapiens, 4 hours. The method, then: as §4, §5, §6

Chain of KRAS G12D binding to BRAF (P01116-2 other isoform, or with tags, fused parts or gaps G12D): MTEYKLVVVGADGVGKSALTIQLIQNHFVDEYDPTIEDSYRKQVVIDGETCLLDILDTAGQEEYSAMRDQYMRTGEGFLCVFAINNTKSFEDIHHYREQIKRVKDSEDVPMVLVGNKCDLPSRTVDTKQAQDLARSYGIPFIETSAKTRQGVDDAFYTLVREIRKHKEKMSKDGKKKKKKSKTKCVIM
Chain of KRAS G12D binding to BRAF (P62937 whole entry): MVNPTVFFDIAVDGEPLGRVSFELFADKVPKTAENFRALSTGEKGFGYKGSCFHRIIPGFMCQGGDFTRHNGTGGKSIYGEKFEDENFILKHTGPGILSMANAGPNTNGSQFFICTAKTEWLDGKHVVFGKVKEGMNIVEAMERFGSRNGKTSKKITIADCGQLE
Chain of KRAS G12V binding to BRAF (P01116-2 other isoform, or with tags, fused parts or gaps G12V): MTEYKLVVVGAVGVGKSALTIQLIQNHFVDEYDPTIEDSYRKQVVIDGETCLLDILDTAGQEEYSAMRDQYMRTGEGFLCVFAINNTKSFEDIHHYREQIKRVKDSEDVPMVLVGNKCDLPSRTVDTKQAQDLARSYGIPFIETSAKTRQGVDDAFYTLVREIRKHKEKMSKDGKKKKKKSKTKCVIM
Chain of KRAS G12V binding to BRAF (P62937 whole entry): as the sequence (P62937 whole entry) above
Chain of KRAS G12C-BRAF complex (P01116-2 other isoform, or with tags, fused parts or gaps G12C): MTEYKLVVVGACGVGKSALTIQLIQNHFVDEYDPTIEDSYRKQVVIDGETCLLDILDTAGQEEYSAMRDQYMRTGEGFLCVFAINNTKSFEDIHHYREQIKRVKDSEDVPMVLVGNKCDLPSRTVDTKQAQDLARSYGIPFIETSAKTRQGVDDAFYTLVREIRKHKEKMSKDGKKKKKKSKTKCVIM
Chain of KRAS G12C-BRAF complex (P62937 whole entry): as the sequence (P62937 whole entry) above

For `CO[C@@H](C)c1ncc(N2CCN(CC(F)(F)F)CC2)cc1-c1c2c3cc(c(F)cc3n1CC(F)(F)F)-c1csc(n1)C[C@H](NC(=O)[C@H](C(C)C)N1CC[C@]3(CCN(C(=O)[C@H](F)Cl)C3)C1=O)C(=O)N1CCC[C@H](N1)C(=O)OCC(C)(C)C2` (atropisomer, axis not shown; (M)) [Example 45, (2S)-2-[(5S)-7-[(2R)-2-chloro-2-fluoro-acetyl]-1-oxo-2,7-diazaspiro[4.4]nonan-2-yl]-N-[(7S,13S)-24-fluoro-(20M)-20-[2-[(1S)-1-methoxyethyl]-5-[4-(2,2,2-trifluoroethyl)piperazin-1-yl]-3-pyridyl]-17,17-dimethyl-8,14-dioxo-21-(2,2,2-trifluoroethyl)-15-oxa-4-thia-9,21,27,28-tetrazapentacyclo[17.5.2.1^2,5.1^9,13.0^22,26]octacosa-1(25),2,5(28),19,22(26),23-hexaen-7-yl]-3-methyl-butanamide], the negative logarithm of the IC50 (pIC50) against KRAS G12C-BRAF complex is 8.00; in experiment [1] it was 6.52; in experiment [2] it was 5.30; in experiment [3], 6.87; in experiment [4] it was 7.70; in experiment [5], above 9.00. Further, the values for the negative-log IC50 (pIC50) (with SW620 (ATCC-CCL-227); in experiment [6]) were 6.92 and 8.15, respectively.
Regarding `CCn1c(-c2cc(N3CCN(CC(F)(F)F)CC3)cnc2[C@H](C)OC)c2c3cc(c(F)cc31)-c1csc(n1)C[C@H](NC(=O)[C@H](C(C)C)N1CCC3(CCN(C(=O)[C@H](F)Cl)CC3)C1=O)C(=O)N1CCC[C@H](N1)C(=O)OCC(C)(C)C2` (atropisomer, axis not shown; (M)) [Example 39, (2S)-2-[8-[(2R)-2-chloro-2-fluoro-acetyl]-1-oxo-2,8-diazaspiro[4.5]decan-2-yl]-N-[(7S,13S)-21-ethyl-24-fluoro-(20M)-20-[2-[(1S)-1-methoxyethyl]-5-[4-(2,2,2-trifluoroethyl)piperazin-1-yl]-3-pyridyl]-17,17-dimethyl-8,14-dioxo-15-oxa-4-thia-9,21,27,28-tetrazapentacyclo[17.5.2.1^2,5.1^9,13.0^22,26]octacosa-1(25),2,5(28),19,22(26),23-hexaen-7-yl]-3-methyl-butanamide], the negative logarithm of the IC50 (pIC50) against KRAS G12C-BRAF complex is 6.98; in experiment [1] it was below 5.00; in experiment [2], below 5.00; in experiment [3], 6.95; in experiment [4] it was 7.36; in experiment [5], above 9.00. Besides, the negative logarithm of the IC50 (pIC50) in the experiment on SW620 (ATCC-CCL-227) was 6.74; in experiment [6], 8.22.
Turning to `CO[C@@H](C)c1ncc(N2CCN(CC(F)(F)F)CC2)cc1-c1c2c3cc(c(F)cc3n1CC(F)(F)F)-c1csc(n1)C[C@H](NC(=O)[C@H](C(C)C)N(C)C(=O)C1(F)CCN(C(=O)[C@H](F)Cl)CC1)C(=O)N1CCC[C@H](N1)C(=O)OCC(C)(C)C2` (atropisomer, axis not shown; (M)) [Example 44, 1-[(2R)-2-chloro-2-fluoro-acetyl]-4-fluoro-N-[(1S)-1-[[(7S,13S)-24-fluoro-(20M)-20-[2-[(1S)-1-methoxyethyl]-5-[4-(2,2,2-trifluoroethyl)piperazin-1-yl]-3-pyridyl]-17,17-dimethyl-8,14-dioxo-21-(2,2,2-trifluoroethyl)-15-oxa-4-thia-9,21,27,28-tetrazapentacyclo[17.5.2.1^2,5.1^9,13.0^22,26]octacosa-1(25),2,5(28),19,22(26),23-hexaen-7-yl]carbamoyl]-2-methyl-propyl]-N-methyl-piperidine-4-carboxamide], the pIC50 on KRAS G12C-BRAF complex is 7.47; in experiment [1] it was 6.22; in experiment [2], 5.87; in experiment [3], 6.87; in experiment [4], 7.36; in experiment [5], above 9.00. In addition, the figures for the negative-log IC50 (pIC50) (in the experiment with SW620 (ATCC-CCL-227); in experiment [6]) were below 5.30 and 8.00, respectively.
